Series [1] concerns the target T1, human estrogen receptor α (hERα) (Homo sapiens, UniProt P03372).
T1 sequence (P03372 1-595): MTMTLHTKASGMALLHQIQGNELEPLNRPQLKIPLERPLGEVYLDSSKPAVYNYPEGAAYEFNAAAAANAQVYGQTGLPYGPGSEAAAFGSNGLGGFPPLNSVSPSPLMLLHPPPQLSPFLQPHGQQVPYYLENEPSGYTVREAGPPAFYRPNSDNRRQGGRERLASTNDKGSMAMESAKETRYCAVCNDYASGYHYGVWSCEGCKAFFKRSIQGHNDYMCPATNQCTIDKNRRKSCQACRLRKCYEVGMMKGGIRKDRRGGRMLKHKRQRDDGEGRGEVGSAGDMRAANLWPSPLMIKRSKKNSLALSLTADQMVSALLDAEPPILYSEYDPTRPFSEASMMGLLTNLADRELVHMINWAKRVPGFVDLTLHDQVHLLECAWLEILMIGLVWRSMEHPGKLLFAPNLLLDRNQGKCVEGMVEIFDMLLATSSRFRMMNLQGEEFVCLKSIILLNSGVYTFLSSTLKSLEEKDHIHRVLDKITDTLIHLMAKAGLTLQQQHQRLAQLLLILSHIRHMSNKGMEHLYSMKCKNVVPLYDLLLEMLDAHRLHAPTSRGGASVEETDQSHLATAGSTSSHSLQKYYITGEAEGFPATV
Description: antagonistic activity in CHO cells co-transfected with hERα, rat oxytocin promoter and luciferase reporter gene. Type of series: cell-based. The settings on record: antagonism of 17β-estradiol-induced transactivation, CHO-hERα-RO-LUC; read-out: ERα pIC50 (converted). The procedure, abridged:
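Recombinant CHO cells stably carrying hERα, rat oxytocin promoter and luciferase reporter, with receptor activated by 17β-estradiol. Antagonist efficacy given as maximal inhibition relative to that of the reference anti-estrogen ICI 164,384.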

Series [2] concerns MCF-7H cells. Description: 7-day in vitro proliferation assay in tamoxifen-resistant MCF-7H breast cancer cells (methyl-3H-thymidine incorporation). Type of series: cell-based, human. The settings on record: for Emax: Homo sapiens, MCF7, 168 h, efficacy (fraction of maximal response relative to E2) in MCF-7H proliferation, read-out: MCF7 ia; for Efficacy (fractional to E2): fraction of maximal response, E2 = 1.00 per definition; for Efficacy (fractional to E2) / % E2: MCF-7H; for % E2: relative potency to induce proliferation, normalized against E2 (=100 per definition). As to the method: To what extent compounds are capable of stimulating proliferation in ER-positive, tamoxifen-resistant breast cancer cells is tested in a 7-day in vitro proliferation assay using MCF-7H cells. More specifically, this in vitro bioassay is used to determine the efficacy (fraction of maximal response), pEC50, and relative potency of the compound to induce proliferation by comparing the data for this compound with those of the reference compound 17β-estradiol (E2) in the same test.
A more detailed description of the method used is as follows.
Cell culture: The human epithelial breast cancer cell line MCF-7H (origin: Hubrecht Laboratory, Utrecht, The Netherlands) was routinely maintained in complete medium which is a 1:1 mixture of Ham's F12 medium and Dulbecco's Modified Eagle Medium (DMEM; Invitrogen, Carlsbad, USA) without phenol red and enriched with 5% fetal calf serum (FCS; Hyclone, Utah, USA), 100 μg/ml streptomycin and 100 units/ml penicillin adapted to contain:
Cells were grown in 80 cm^2 culture flasks (Nunc, Roskilde, Denmark) and kept in an atmosphere of 5% CO2-95% air at 37 degrees Celsius. Cells were subcultured when they reached about 80-90% confluence, resulting in one passage a week. Subculturing includes detaching the cells using trypsin/EDTA and diluting the cell suspension 10 times.
Methyl-^3H-thymidine incorporation assay: MCF-7H cells were starved overnight in assay medium containing 5% charcoal-treated (CT) bovine calf serum (BCS; Hyclone) instead of FCS and a final concentration of 1.0 μg/ml bovine insulin, the day before plating. Cells were plated in assay medium containing 5% CT BCS, in white 24-wells plates (Perkin Elmer, Shelton, USA), at a density of 7.5×10^3 cells per well, each well containing 630 μL assay medium. Cells were allowed to attach and spread for 24 h before stimulation with reference and/or test compound(s). After a stimulation period of 7 days, 0.25 μCi/well of methyl-^3H-thymidine (GE Healthcare Limited, Buckinghamshire, UK) was added per well. Cultures were maintained in an atmosphere of 5% CO2-95% air at 37 degrees Celsius. After overnight incubation, excess methyl-^3H-thymidine was aspirated and the cells were washed with phosphate-buffered saline (PBS). After 1 h of incubation with 1 ml scintillation fluid Microscint-20 (Perkin Elmer), radioactivity was measured in a Packard TOP-count NXT microplate scintillation counter (Perkin Elmer).

The target in series [3] is T2, estrogen receptor alpha (Homo sapiens, UniProt P03372).
T2 construct: endogenous in cells; host or cells: T47D human breast cancer cells (ATCC)
T2 sequence (P03372 1-595): T1 sequence (P03372 1-595)
Description: ERα downregulation assay in T47D breast cancer cells (ERα ELISA). The settings on record: 24 hours; for DR (%): downregulation of ERα relative to fulvestrant (100%), 1E-5 M, negative = upregulation. Type of series: cell-based. An outline of the steps: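 T47D cells were treated with 1E-5 M test compound for 24 hours, then lysed in the well. ERα protein content was measured by ELISA. Efficacy is given as fraction of maximal response relative to fulvestrant, defined as 100% downregulation.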

Series [4] can be described thus: Rapid Rat PK after oral administration. Type of series: in vivo, rats (Rattus Norvegicus). The settings on record: 20 umol/kg, plasma, oral 20 μmol/kg; for AUC: AUC(0-6h), read-out: RRat AUC; for Cmax: read-out: RRat Cmax. Here is the method: In the context of the present invention with “orally bioavailable” is meant that compounds, when dosed orally to a rat show oral exposure as determined by quantification of compound plasma levels in that rat. Typically, compounds are dosed orally at 20 μmol/kg, as described in Example 14 hereinbelow. Oral exposure is determined by measuring plasma levels over the time range of 0-6 h after dosing and is expressed by AUC(0-6h).
This test was used to determine the pharmacokinetic parameters (AUC(0-6h), Cmax and Tmax) after oral administration of compounds in male (intact or castrated) or female (intact or ovariectomized) rats (Rattus Norvegicus).
After oral administration of a compound at 20 μmol/kg, blood was collected at various time points (0.5, 1, 2, 3, 4 and 6 hours after compound administration) via the tail vein. Plasma samples were pooled per time point, after which the concentration was determined in plasma by means of LC-MS. Pharmacokinetic parameters (AUC(0-6h), Cmax and Tmax) were derived from the obtained concentration versus time curves using the non-compartmental analysis module in Animals! or WinNonlin.

Structures are written as SMILES. Marks after values point to notes of the source that are not given here.

In the case of `CCCN1CC(Oc2ccc(C(=O)c3c(-c4ccc(O)cc4)noc3-c3ccccc3C)cc2)C1.Cl` [compound 7az, (3-(4-hydroxyphenyl)-5-o-tolylisoxazol-4-yl)(4-(1-propylazetidin-3-yloxy)-phenyl)methanone hydrochloride], the IC50 in series [1] is 6.31 nM. Moreover, the Emax in series [2] was determined as 8%. Moreover, the “DR (%)” value in series [3] turned out to be 88%.
With `CCCN1CC(Oc2ccc(-c3c(-c4ccc(O)cc4)sc4cc(O)ccc34)cc2)C1.O=C(O)C(F)(F)F` [compound 6b, 2-(4-hydroxyphenyl)-3-(4-(1-propylazetidin-3-yloxy)phenyl)benzo[b]thiophen-6-ol 2,2,2-trifluoroacetate], the IC50 in series [1] was 0.794 nM. Further, in series [2], the Emax amounted to 10%. In series [3], the “DR (%)” value was found to be 53%.
For the molecule `C[C@]12CC[C@@H]3c4ccc(O)cc4C[C@@H](CCCCCCCCC[S+]([O-])CCCC(F)(F)C(F)(F)F)[C@H]3[C@@H]1CC[C@@H]2O` (some centres unmarked) [Fulvestrant], in series [2], the “Efficacy (fractional to E2)” value is listed as 0.02 and the “% E2” value was 18.9%. Besides, in series [3] (1E-5 M test compound, fulvestrant = 100 per definition, negative number = upregulation or stabilization), the “Downregulation (% of fulvestrant)” value is recorded as 100 ^a %.
By AUC is commonly meant concentration integrated over time. As usually defined, the Cmax is the highest concentration seen after dosing. In the case of `Cl.Oc1ccc(-c2onc(-c3ccccc3Cl)c2-c2ccc(OC3CN(CC4CCC4)C3)cc2)cc1` [compound 7z, 4-(3-(2-chlorophenyl)-4-(4-(1-(cyclobutylmethyl)azetidin-3-yloxy)phenyl)-isoxazol-5-yl)phenol hydrochloride], the IC50 in series [1] is 0.398 nM. The “DR (%)” value in series [3] is listed as 58%. In series [4], the AUC worked out at 1.03 µM·h and the Cmax came to 350 nM.
For `Cl.Oc1ccc(-c2onc(-c3ccccc3Cl)c2-c2ccc(OC3CN(CCCF)C3)cc2)cc1` [compound 7aa, 4-(3-(2-chlorophenyl)-4-(4-(1-(3-fluoropropyl)azetidin-3-yloxy)phenyl)isoxazol-5-yl)phenol hydrochloride], in that order: 1 nM, 93%, 3.58 µM·h and 990 nM.
Take `CCCN1CC(Oc2ccc(C(=O)c3c(-c4ccc(O)cc4)sc4cc(O)ccc34)cc2)C1.O=C(O)C(F)(F)F` [compound 6d, (6-hydroxy-2-(4-hydroxyphenyl)benzo[b]thiophen-3-yl)(4-(1-propylazetidin-3-yloxy)phenyl)methanone 2,2,2-trifluoroacetate]: the IC50 in series [1] was 1.58 nM. Further, in series [2], the Emax is 5%. Further, the “DR (%)” value in series [3] turned out to be 79%.
On to `CC(C)CN1CC(Oc2ccc(-c3c(-c4ccccc4Cl)noc3-c3ccc(O)cc3)cc2)C1.Cl` [compound 7w, 4-(3-(2-chlorophenyl)-4-(4-(1-isobutylazetidin-3-yloxy)phenyl)isoxazol-5-yl)-phenol hydrochloride], for which the IC50 in series [1] is 0.316 nM. The “DR (%)” value in series [3] was 32%. For the same molecule, in series [4], the area under the curve (AUC) was found to be 1.55 µM·h and the highest concentration (Cmax) stood at 520 nM.
Take `CCCN1CC(Oc2ccc(C(=C(CC)c3ccccc3)c3cccc(O)c3)cc2)C1` (mixture of isomers) [compound 6w, (E/Z)-3-(2-phenyl-1-(4-(1-propylazetidin-3-yloxy)phenyl)but-1-enyl)phenol]: the IC50 in series [1] is 5.01 nM. Moreover, in series [3], the “DR (%)” value is 63%. For the same molecule, in series [4], the area under the curve (AUC) was found to be 1.07 µM·h and the highest concentration (Cmax) was found to be 230 nM.
In the case of `CCCN1CC(Oc2ccc(C(=O)c3c(-c4ccccc4Cl)noc3-c3ccc(O)cc3)cc2)C1.Cl` [compound 6m, (3-(2-chlorophenyl)-5-(4-hydroxyphenyl)isoxazol-4-yl)(4-(1-propylazetidin-3-yloxy)phenyl)methanone hydrochloride], the IC50 in series [1] is 2 nM. Further, the Emax in series [2] worked out at 7%. In addition, the “DR (%)” value in series [3] was found to be 81%.
For `CCCN1CC(Oc2ccc(C(=O)c3c(-c4ccccc4C)nsc3-c3ccc(O)cc3)cc2)C1.Cl` [compound 7bb, (5-(4-hydroxyphenyl)-3-o-tolylisothiazol-4-yl)(4-(1-propylazetidin-3-yloxy)-phenyl)methanone hydrochloride] the same measures were 2 nM, 3% and 90%.
For `O=C(c1ccc(OC2CN(CCCF)C2)cc1)c1c(-c2ccccc2Cl)noc1-c1ccc(O)cc1` [compound 7ah], in that order: 2.51 nM, 6% and 94%.
For `CCCN1CC(Oc2ccc(C(=O)c3c(-c4c(F)cccc4F)noc3-c3ccc(O)cc3)cc2)C1.Cl` [compound 7ak, (3-(2,6-difluorophenyl)-5-(4-hydroxyphenyl)isoxazol-4-yl)(4-(1-propylazetidin-3-yloxy)phenyl)methanone hydrochloride] the same measures were 3.16 nM, 7% and 93%.
`COc1ccc(-c2sc3cc(O)ccc3c2Oc2ccc(OCCN3CCCCC3)cc2)cc1` [Arzoxifene]: in series [2], the “Efficacy (fractional to E2)” value came out at 0.34 and the “% E2” value is on record as 99.1%.
On to `CCCN1CC(Oc2ccc([C@@H]3c4ccc(O)cc4CC[C@@H]3c3ccccc3)cc2)C1.Cl` [compound 6q, (5R,6S)-6-phenyl-5-(4-(1-propylazetidin-3-yloxy)phenyl)-5,6,7,8-tetrahydronaphthalen-2-ol hydrochloride], for which, in series [1], the IC50 is 0.251 nM. Further, the Emax in series [2] amounted to 6%. The “DR (%)” value in series [3] was 47%.
`CC/C(=C(/c1ccc(OCCN(C)C)cc1)c1cccc(O)c1)c1ccccc1` [Droloxifene]: in series [2], the “Efficacy (fractional to E2)” value worked out at 0.38 and the “% E2” value worked out at 5.9%.
Consider `C[C@]12CC[C@@H]3c4ccc(O)cc4CC[C@H]3[C@@H]1CC[C@@H]2O` [E2, 17β-estradiol], for which, in series [2], the “Efficacy (fractional to E2)” value was 1.00 ^a and the “% E2” value is on record as 100 ^a %. Further, in series [2] (potency range and efficacy in words), the “induce proliferation of MCF-7H breast cancer cells” value was “in the picomolar range and with full efficacy”.

Source of the values: US9540361B2, “N-substituted azetidine derivatives” (Merck Sharp & Dohme B.V., priority 2010, dated 2017).
